Assay results published in patent US20250114313A1, “OLIGO-BENZAMIDE ANALOGS AND THEIR USE IN CANCER TREATMENT” (BOARD OF REGENTS, THE UNIVERSITY OF TEXAS SYSTEM, priority 2022, published 2025).

Experiments:
SUM-159 cells = experiment: CellTiter-Glo, SUM-159 WT cells (mCherry-RAMP4); format: cell-based; details: Homo sapiens, SUM159; SUM-159 stably transfected mCherry-RAMP4, CellTiter-Glo
Protocol: (§1) Cell viability assays: Cells were seeded in 96-well plates (2×10^3 cells/well) one day before the treatment. Cells were treated with varying concentrations of ERX-41 or ERX-11 analogs for 3-6 days. Then effects of ERX-41 or ERX-11 analogs on cell viability were measured in triplicate or sextuplicate with multiple biological replicates using the WST-1 (Promega), MTT as previously described^33 or CellTiter-Glo 2.0 (Promega) assays.

[1] = test system: 21 human preclinical TNBC cell line models; experiment: WST-1 assay, TNBC cell lines; format: cell-based; details: 21 TNBC cell lines, all six molecular subtypes, read-out: anti-proliferative IC50, WST-1
Protocol: as §1

[2] = Evaluation of normal organs of treated mice (H&E, IHC, flow cytometry, ELISpot); format: in vivo
Protocol: Immunohistochemistry: Immunohistochemical studies were performed as described previously.^7 For the immunohistochemical studies, tissue sections were blocked in background sniper (Biocare Medical, RS966L) followed by overnight incubation with primary antibodies anti-Ki-67 antibody (1:1000, GeneTex cat #GTX16667 RRID:AB_422351) (link), anti-CHOP antibody (1:2000, Sigma, Cat #HPA068416), anti-PERK (phospho T982) antibody (1:150, Abcam Cat #ab192591, RRID:AB_2728666) link)), anti-phospho-eIF2α (Ser51) (1:50, Cell signaling, cs3398) and subsequent secondary antibody incubation for 60 min at room temperature. Immunoreactivity was visualized by using the DAB substrate and counterstained with hematoxylin (Vector Lab, Inc.). Percent of Ki67 positive proliferating cells was calculated in five randomly selected high-power fields (×40).
ELISpot. For ELISpot analysis of total IgM^+ and IgG^+ ASCs, Multi-Screen® filter plates (Millipore) were activated with 35% ethanol, washed with PBS, and coated with anti-IgM (SouthernBiotech, Cat. #1020-01) or anti-IgG (SouthernBiotech, Cat. #1030-01) in PBS. Single bone marrow cell suspensions were prepared, as above, and cultured at 250,000 cells/ml in RPMI 1640 medium (Invitrogen) supplemented with FBS (10% v/v, Invitrogen), penicillin-streptomycin/amphotericin B (1% v/v) and 50 μM β-mercaptoethanol (RPMI-FBS) at 37° C. for 16 h. After supernatants were removed, plates were incubated with biotinylated goat anti-mouse IgM (SouthernBiotech, Cat. #1020-08) or goat anti-mouse IgG1 (SouthernBiotech, Cat. #1070-08) Ab for 2 h and, after washing, incubated with HRP-conjugated streptavidin. Plates were developed using the Vectastain AEC peroxidase substrate kit (Vector Laboratories). The stained area in each well was quantified using the CTL ImmunoSpot software (Cellular Technology) and depicted as the number of spots for quantification
Flow cytometry: Single cell suspensions were flushed from tibia and fibula using sterile DPBS using a 10 ml syringe and 30 G needle. Red blood cells were removed by incubation with ACK lysis buffer (Lonzo) for 2 m. Bone marrow cells (2×10^6) were first stained in Hank's Buffered Salt Solution plus 0.1% BSA (HBSS-BSA) for 20 m with fixable viability dye (FVD, eFluor™ 506, eBioscience™, Cat. #50-246-097) and fluorophore-labeled mAbs to surface markers, including CD3 (APC-Cy7, Clone 17A2, BioLegend, Cat. #100221), IgD (FITC, Clone 11-26c.2a, BioLegend, Cat. #405704), CD138 (PE-Cy7, Clone 281-2, BioLegend, Cat. #142514), SCA-1 (PerCP, Clone D7, BioLegend, Cat. #108121), B220 (BV421, Clone RA3-6B2, BioLegend, Cat. #103240), in the presence of mAb Clone 2.4G2, which blocks FcγII and FcγIII receptors. After washing, cells were then fixed and permeablized by incubation for 1 h in 250 μl BD Cytofix/Cytoperm™ buffer (BD Fixation/Permeablization Kit, Cat. #554714) at 4° C. After washing twice with the BD Perm/Wash™ buffer, cells were counted again and 10^6 cells were resuspended in 100 μl of BD Cytofix/Cytoperm™ buffer for intracellular staining with anti-Igκ mAb (PE, e-Bioscience™, Clone 1871, Cat. #MKAPPA04) for 30 m. After washing with BD Perm/Wash™ buffer, cells were analyzed by LSRII (BD). FACS data were analyzed by the FlowJo® software (BD).
Animal Studies: All animal experiments were performed using UTHSA and UTSW IACUC approved protocols. For cell based xenograft tumor assays, TNBC cells (2×10^5-2×10^6) were mixed with an equal volume of matrigel and implanted in the mammary fat pads of 6-week-old female athymic nude mice as described^33. BALB/c mice were used for D2A1 syngeneic model. Once tumors reached measurable size, mice were divided into control (vehicle) and ERX-41 (10 mg/kg/oral) treatment groups. Mice bearing TNBC PDX tumors were purchased from Jackson laboratory (TM00089; TM00096; TM00098). TNBC PDX line UTPDX0001 establishment was earlier described^38. WHIM-20 ER+PDX model was purchased from Horizon Labs. OCa-PDX-38 was received from UTHSA ObGyn tissue procurement core. […]

LIPA KO SUM-159 cells = experiment: Live cell confocal imaging of ER tubule width, SUM-159 LIPA KO; format: cell-based, Human; details: 1 μM
Protocol: Live cell confocal and Airyscan imaging: To visualize ER structure, stable SUM-159 cell lines expressing mCherry-RAMP4 were established. pLenti-X1-hygro-mCherry-RAMP4 was purchased from Addgene (Addgene #118391; //n2t.net/addgene:118391; RRID:Addgene_118391) (via Jacob Corn).^35 The live cell images were acquired by Confocal Zeiss LSM880 Airyscan. ER tubule width was calculated by drawing 1px-wide line scans perpendicular to the long axis of individual ER tubules. In MATLAB, the peak intensity along each line scan was determined and the distance between the half maximum intensity on either side of the peak was measured. The code for this analysis is available at: //github.com/andmoo91/HalfMaxScript.

Compound: CC(C)COc1cc(C(=O)Nc2ccc(C(=O)N[C@H]3CC[C@H](C)CC3)cc2OCC(C)C)ccc1NC(=O)c1ccc([N+](=O)[O-])c(OCCO)c1 [ERX-41]
- IC50 (SUM-159 cells): ~200 nM
- IC50 [1]: < 500 nM
- bone marrow plasma cell numbers, Ig κ expression, IgM or IgG ASCs ([2]; flow cytometry and ELISpot, 1 week oral 10 mg/kg/day): did not show any significant effects
- gross histology of organs, nude mice with MDA-MB-231 xenografts ([2]; heart, lung, spleen, liver, kidney, ovary, pancreas, 30 days oral 10 mg/kg/day): no significant changes in the gross histology of multiple organs
- histology of organs, syngeneic mice with D2A1 xenografts ([2]; multiple organs including spleen): no significant histologic changes or immune infiltrates
- ER stress in normal liver or kidney tissues ([2]; oral administration, data not shown): no significant induction of ER stress
- uterus: proliferation index (Ki67), endometrial cell height, ERα expression ([2]; oral, 10 mg/kg/day): did not affect the proliferation index
- immunogenicity ([2]; syngeneic mice): not immunogenic
- ER tubule diameter in LIPA KO cells (LIPA KO SUM-159 cells): no significant changes in ER tubule diameter
